Measured values as given in patent US3966715A, “Herbicidal agents” (Bayer Aktiengesellschaft, priority 1966, dated 1976).

How the values were obtained:
[1] = system: Sinapis; experiment: Post-emergence test, Sinapis; type: in vivo; settings: three weeks
Method: (§1) Solvent: 5 parts by weight acetone
(§2) 1 part by weight benzyloxypolyglycol ether
(§3) To produce a suitable preparation of the particular active compound, 1 part by weight of such active compound is mixed with the stated amount of solvent, the stated amount of emulsifier is then added and the resulting concentrate is thereafter diluted with water to the desired final concentration.
(§4) Test plants which have a height of about 5--15 cm. are sprayed with the preparation of the given active compound until just dew moist. After three weeks, the degree of damage to the plants is determined and characterized by the values 0-5, which have the following meaning:
(§5) The procedure of Example 2 is repeated, and the particular active compounds tested, and amounts applied, and the results obtained can be seen from the following Table 2E: […]

[2] = system: Sinapis; experiment: Pre-emergence test, Sinapis; type: in vivo; settings: three weeks
Method: as §1, §2, §3
(§6) Seeds of the test plants are sown in normal soil and, after 24 hours, watered with the preparation of the given active compound. It is expedient to keep constant the amount of water per unit area. The concentration of the particular active compound in the preparation is of no importance, only the amount of active compound applied per unit area being decisive. After three weeks, the degree of damage to the test plants is determined and characterized by the values 0-5, which have the following meaning:
(§7) The procedure of Example 1 is repeated, and the particular active compounds tested, the amounts applied, and the results obtained can be seen from the following Table 1D: […]

[3] = system: Cotton; experiment: Pre-emergence test, cotton; type: in vivo; settings: three weeks
Method: as §1, §2, §3, §6, §7

[4] = system: Oats; experiment: Pre-emergence test, oats; type: in vivo; settings: three weeks
Method: as §1, §2, §3, §6, §7

[5] = system: Wheat; experiment: Pre-emergence test, wheat; type: in vivo; settings: three weeks
Method: as §1, §2, §3, §6, §7

[6] = system: plants and weeds; experiment: General herbicidal activity; type: in vivo; settings: for usefulness as herbicide: compared with compound 221
[7] = system: Wheat; experiment: Post-emergence test, wheat; type: in vivo; settings: three weeks
Method: as §1, §2, §3, §4, §5

[8] = system: Stellaria; experiment: Post-emergence test, Stellaria; type: in vivo; settings: 0.6 Kg/hectare, three weeks
Method: as §1, §2, §3, §4, §5

[9] = system: Echinochloa; experiment: Pre-emergence test, Echinochloa; type: in vivo; settings: three weeks
Method: as §1, §2, §3, §6, §7

[10] = system: dwarf beans; experiment: Defoliant test; type: in vivo; settings: 0.05% active compound
Method: There is prepared, in the same manner as described in Example 1, an active compound preparation which contains 0.05% of
(1a") 3-methylthio-4-amino-6-phenyl-1,2,4-triazine-5-one.
A field of dwarf beans is sprayed with this preparation of the active compound so that the dwarf beans themselves are only just dripping wet.

[11] = system: Oats; experiment: Post-emergence test, oats; type: in vivo; settings: three weeks
Method: as §1, §2, §3, §4, §5

[12] = system: test plants; experiment: Post-emergence test, overall; type: in vivo; settings: for kind of herbicidal action: Example 2
Method: as §1, §2, §3, §4, §5

[13] = system: test plants; experiment: Pre-emergence test, overall; type: in vivo; settings: Example 1
Method: as §1, §2, §3, §6, §7

[14] = system: cotton and tomatoes; experiment: Pre-emergence selectivity, cotton and tomatoes; type: in vivo; settings: pre-emergence application
[15] = system: corn, potatoes, millet and peanuts; experiment: Use in growing corn, potatoes, millet and peanuts; type: in vivo; settings: 0.3-2 kg/hectare
[16] = system: nematoeds; experiment: Nematocidal activity on the soil; type: in vivo; settings: 1 Kg/hectare
[17] = system: Alternaria; experiment: Fungicidal activity; type: in vivo; settings: particularly against Alternaria
[18] = system: rats; experiment: Oral toxicity in rats; settings: in words
[19] = Oral toxicity in rats; settings: rat, in vivo, po
[20] = system: Galinsoga; experiment: Post-emergence test, Galinsoga; type: in vivo; settings: three weeks
Method: as §1, §2, §3, §4, §5

[21] = system: Chenopodium; experiment: Post-emergence test, Chenopodium; type: in vivo; settings: three weeks
Method: as §1, §2, §3, §4, §5

[22] = system: soybeans; experiment: Pre-emergence selectivity, soybeans; type: in vivo
[23] = system: Cotton; experiment: Post-emergence test, cotton; type: in vivo; settings: 1.2 Kg/hectare, three weeks
Method: as §1, §2, §3, §4, §5

[24] = system: Echinochloa; experiment: Post-emergence test, Echinochloa; type: in vivo; settings: 1.2 Kg/hectare, three weeks
Method: as §1, §2, §3, §4, §5

CSc1nnc(C(C)C)c(=O)n1NC(O)C(Cl)(Cl)Cl (stereo not drawn) [Compound 191, 3-methylthio-4-(β-trichloro-α-hydroxy-ethyl)-amino-6-isopropyl-1,2,4-triazine-5-one]
degree of damage, Sinapis ([1]; 1.2 Kg/hectare): 4-5

CSc1nnc(C(C)(C)C)c(=O)n1N=Cc1ccco1 [Compound 222, 3-methylthio-4-(furfur-2'-ylidene-amino)-6-tert.-butyl-1,2,4-triazine-5-one]
degree of damage, Sinapis ([2]; 1.25 kg/hectare): 4-5 | degree of damage, Cotton ([3]; 1.25 kg/hectare): 4-5 | degree of damage, Oats ([4]; 1.25 kg/hectare): 4-5 | degree of damage, Wheat ([5]; 5 kg/hectare): 4-5 | usefulness as herbicide [6]: similarly useful | degree of damage, Wheat ([7]; 2.4 Kg/hectare): 4-5 | degree of damage, Stellaria [8]: 4-5

CSc1nnc(-c2ccccc2)c(=O)n1N [Compound 1a, 3-methylthio-4-amino-6-phenyl-1,2,4-triazine-5-one]
degree of damage, Echinochloa ([9]; 1.25 kg/hectare): 4-5 | harvesting of the beans [10]: quite considerably facilitated | drying up of leaves ([10]; after 8 days): completely dried up | degree of damage, Oats ([11]; 1.2 Kg/hectare): 4-5 | degree of damage, Oats ([11]; 2.4 Kg/hectare): 4-5

CSc1nnc(-c2ccccc2)c(=O)n1N=Cc1ccccn1 [Compound 28, 3-methylthio-4-(pyrid-2'-yl-methylidene-amino)-6-phenyl-1,2,4-triazine-5-one]
kind of herbicidal action [12]: pronouncedly selective-herbicidal action in snap beans and wheat

CCSc1nnc(-c2ccccc2)c(=O)n1N [Compound 3, 3-ethylthio-4-amino-6-phenyl-1,2,4-triazine-5-one]
kind of herbicidal action [13]: selectively herbicidal action in wheat and cotton

CSc1nnc(C(C)(C)C)c(=O)n1N=Cc1ccccc1 [Compound 236]
selectivity [14]: selective as to cotton and tomatoes | effectiveness in growing crops [15]: effective in growing corn, potatoes, millet and peanuts | general properties ([6]; compared with compounds 221, 222, 223): same general properties | killing of nematodes [16]: kills nematoeds | fungicidal activity [17]: exhibits fungicidal activity, particularly against Alternaria | toxicity [18]: quite low | LD50 [19]: 1000 mg/kg

CCNc1nc(Cl)nc(NCC)n1 [A, 2,6-di-(ethylamino)-4-chloro-1,3,5-triazine, reference compound]
degree of damage, Echinochloa ([9]; 5 kg/hectare): 3-4 | degree of damage, Galinsoga ([20]; 0.1 % active compound): 4-5

CSc1nnc(C(C)C)c(=O)n1N [Compound 21, 3-methylthio-4-amino-6-isopropyl-1,2,4-triazine-5-one]
degree of damage, Wheat ([7]; 0.01 % active compound): 4-5 | kind of herbicidal action [12]: pronouncedly total-herbicidal action

C=CCNc1nnc(-c2ccccc2)c(=O)n1N [Compound 26, 3-allylamino-4-amino-6-phenyl-1,2,4-triazine-5-one]
degree of damage, Echinochloa ([9]; 5 kg/hectare): 4-5 | degree of damage, Chenopodium ([21]; 0.6 Kg/hectare): 4-5 | kind of herbicidal action [12]: pronouncedly selective-herbicidal action in wheat and carrots

Nn1c(N2CCCCC2)nnc(-c2ccccc2)c1=O [Compound 25, 3-piperidino-4-amino-6-phenyl-1,2,4-triazine-5-one]
degree of damage, Chenopodium ([21]; 10 Kg/hectare): 3-4 | degree of damage, Sinapis ([1]; 10 Kg/hectare): 4-5

CCNc1nnc(C(C)C)c(=O)n1N [Compound 177, 3-ethylamino-4-amino-6-isopropyl-1,2,4-triazine-5-one]
degree of damage, Sinapis ([2]; 5 kg/hectare): 4-5 | degree of damage, Oats ([4]; 2.5 kg/hectare): 4-5 | degree of damage, Galinsoga ([20]; 2.4 Kg/hectare): 4-5 | degree of damage, Wheat ([7]; 2.4 Kg/hectare): 4-5 | degree of damage, Oats ([11]; 2.4 Kg/hectare): 4-5

CSc1nnc(C(C)(C)C)c(=O)n1N=C1CCCCC1 [Compound 221, 3-methylthio-4-(cyclohexylidene-amino)-6-tert.-butyl-1,2,4-triazine-5-one]
degree of damage, Wheat ([5]; 1.25 kg/hectare): 4-5 | selectivity [22]: selective for soybeans | degree of damage, Wheat ([7]; 2.4 Kg/hectare): 4-5 | general herbicidal activity [12]: very good general herbicidal activity

CSc1nnc(C2CCCCC2)c(=O)n1N [Compound 2, 3-methylthio-4-amino-6-cyclohexyl-1,2,4-triazine-5-one]
degree of damage, Oats ([4]; 1.25 kg/hectare): 4-5 | degree of damage, Wheat ([5]; 1.25 kg/hectare): 4-5 | kind of herbicidal action [13]: pronouncedly total-herbicidal action

CSc1nnc(C(C)C)c(=O)n1N=C1CCCC1 [Compound 223, 3-methylthio-4-(cyclopentylidene-amino)-6-isopropyl-1,2,4-triazine-5-one]
degree of damage, Cotton [23]: 4-5 | degree of damage, Sinapis ([2]; 1.25 kg/hectare): 4-5 | degree of damage, Cotton ([3]; 2.5 kg/hectare): 4-5 | degree of damage, Cotton ([3]; 5 kg/hectare): 4-5 | degree of damage, Chenopodium ([21]; 1.2 Kg/hectare): 4-5 | degree of damage, Oats ([4]; 1.25 kg/hectare): 4-5 | degree of damage, Wheat ([5]; 2.5 kg/hectare): 4-5 | degree of damage, Wheat ([5]; 5 kg/hectare): 4-5 | degree of damage, Echinochloa [24]: 4-5 | usefulness as herbicide [6]: similarly useful
